Ends that are not written are not given here.
Tests used:
peritoneal macrophages = assay: In vivo phage display on peritoneal cells of 4T1 tumor-bearing versus normal mice; parameters: species or system mouse; conditions: phage-displayed peptide, peritoneal cells of 4T1 tumor mice
Experimental: A, Naive phage library was injected intraperitoneally in 4T1 tumor-bearing mice and age-matched normal mice, and allowed to circulate for two h. Peritoneal cells were collected, the accompanying phages were rescued and the peptide-encoding segment of phage DNA was sequenced. […] Peritoneal cells were extracted from the mice, seeded on coverslips, allowed to attach for 2 h, fixed, permeabilized, and stained for CD206. CD206+ cells were counted from 6 different confocal images, 2 from each mouse. C, Highly repeated sequences obtained from the first round of the biopanning experiment shown schematically in panel A. D, Frequency of phage clones encoding UNO or a randomly picked peptide (CIGVSSDC) divided by the total number of repeated sequences) in the 4T1 tumor-bearing and normal mice.
Ten days later, the 4T1 mouse and a Balb/c female mouse of the matched age, were injected with 500 μL of a 7×10^10 pfu/mL of purified CX7C long-circulating library that bears a mutation on the p17 protein of tail fiber^45. After 2 h the mice were anesthetized and peritoneal cells were collected, washed by centrifugation, and lysed by hand-held homogenizer in 2 mL of LB+NP40 1%. The phage was amplified in E. coli strain BLT5403 for high throughput sequencing of peptide encoding segment of the phage genomic DNA using Ion Torrent semiconductor sequencing system.
In vivo phage display was carried out on orthotopic breast cancer bearing mice as outlined in FIG. 1A. Compared to peritoneal cells of healthy mice, […] macrophages were ˜5-fold overrepresented in Balb/c mice bearing metastatic syngeneic 4T1 breast tumors (FIG. 1B). We hypothesized that a peptide that binds to peritoneal macrophages in tumor-bearing mice may also target M2-like TAMs. Mice with 4T1 tumors were injected intraperitoneally (i.p.) with a phage library expressing 9-amino acid cyclic CX7C peptides. After 2 h, peritoneal cells were collected, bound phages were rescued by amplification, and the resulting phage pool was subjected to high-throughput sequencing of the peptide-encoding segment of the phage genome. […]

[1] = target: T1, recombinant mouse macrophage mannose receptor rmMMR/CD206 (Mus musculus, UniProt Q61830); assay: Fluorescence anisotropy assay with mouse recombinant CD206; type: binding; conditions: 50 nM FAM peptide, 1 μM protein, 25 °C
T1 construct: purchased R&D Systems 2535-MM-050
T1 sequence (Q61830 20-1456): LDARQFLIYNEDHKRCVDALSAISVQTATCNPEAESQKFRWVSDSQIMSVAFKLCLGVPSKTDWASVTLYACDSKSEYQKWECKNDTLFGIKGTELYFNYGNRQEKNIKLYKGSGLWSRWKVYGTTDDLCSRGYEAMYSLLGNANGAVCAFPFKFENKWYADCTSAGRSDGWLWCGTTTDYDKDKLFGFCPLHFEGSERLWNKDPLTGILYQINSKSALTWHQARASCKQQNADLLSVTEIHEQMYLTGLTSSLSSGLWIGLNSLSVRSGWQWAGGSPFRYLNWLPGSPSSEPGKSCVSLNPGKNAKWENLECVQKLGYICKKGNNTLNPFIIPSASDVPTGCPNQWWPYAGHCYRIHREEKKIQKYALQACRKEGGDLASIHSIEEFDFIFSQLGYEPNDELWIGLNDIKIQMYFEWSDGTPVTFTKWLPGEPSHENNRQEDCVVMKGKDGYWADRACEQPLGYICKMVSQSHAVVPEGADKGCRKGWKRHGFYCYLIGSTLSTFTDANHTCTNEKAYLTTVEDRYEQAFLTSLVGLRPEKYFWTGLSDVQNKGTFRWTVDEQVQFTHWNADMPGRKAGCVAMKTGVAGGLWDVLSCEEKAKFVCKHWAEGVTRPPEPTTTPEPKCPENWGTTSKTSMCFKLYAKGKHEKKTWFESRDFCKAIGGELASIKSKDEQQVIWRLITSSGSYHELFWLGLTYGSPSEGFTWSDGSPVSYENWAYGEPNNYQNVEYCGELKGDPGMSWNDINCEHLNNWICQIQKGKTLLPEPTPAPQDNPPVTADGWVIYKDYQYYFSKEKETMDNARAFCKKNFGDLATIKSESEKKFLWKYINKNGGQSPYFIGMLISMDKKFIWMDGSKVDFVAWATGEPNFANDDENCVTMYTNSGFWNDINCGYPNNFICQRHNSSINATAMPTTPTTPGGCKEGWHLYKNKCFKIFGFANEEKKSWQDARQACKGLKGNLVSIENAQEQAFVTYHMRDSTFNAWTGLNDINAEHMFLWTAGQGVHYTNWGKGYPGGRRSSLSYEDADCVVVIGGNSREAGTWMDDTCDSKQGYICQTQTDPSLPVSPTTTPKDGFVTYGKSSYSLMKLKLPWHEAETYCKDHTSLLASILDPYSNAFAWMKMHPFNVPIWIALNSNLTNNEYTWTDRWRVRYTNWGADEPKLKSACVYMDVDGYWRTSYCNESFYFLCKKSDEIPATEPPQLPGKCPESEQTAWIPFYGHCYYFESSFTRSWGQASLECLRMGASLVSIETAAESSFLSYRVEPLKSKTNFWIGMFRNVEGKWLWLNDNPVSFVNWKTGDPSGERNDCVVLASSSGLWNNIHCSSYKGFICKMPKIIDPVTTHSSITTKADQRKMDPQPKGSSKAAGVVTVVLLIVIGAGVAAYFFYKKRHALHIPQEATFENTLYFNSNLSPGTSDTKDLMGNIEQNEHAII
Experimental: The stocks of fluorescent ligands (FAM-UNO, FAM-CSPGAK and FAM-CPMTDNE) in mQ water were stored at −20° C. […], 150 mM NaCl, 1 mM CaCl2, 0.1% Pluronic F-127, pH 7.4) on the day of experiment. The concentration of fluorescent ligands was determined by absorbance of FAM (E495=75000 M^−1 cm^−1).
The recombinant mouse macrophage mannose receptor rmMMR/CD206 (R&D Systems, catalog number: 2535-MM-050) and recombinant mouse CD163 (R&D Systems, catalog number: 7435-CD-050) were reconstituted at 1 mg/ml in IB, aliquoted and stored at −20° C. To generate linearized version of cyclic FAM-UNO peptide, the peptide at 1 mM concentration was preincubated for 24 h at room temperature in a dark place with 3 mM DTT and diluted with IB 2×10^5 times before the FA assay. The control experiment with FAM-CPMTDNE peptide (FIG. 22) was performed to rule out the possibility of disulphide bond formation, which could affect the binding properties of linear peptides. Initially, the peptide was preincubated in DMSO for 4 days at room temperature to enhance the disulphide bond formation, and then diluted in IB buffer with 3 mM DTT, and the disappearance of preformed dimer was observed as a change in FA signal.
In all experiments, FA signal measurements were done under pseudo first-order conditions with 50 nM singly labelled FAM peptides and 1 μM proteins. […] Assays were carried out in kinetic mode in a total volume of 30 μl at 25° C. on the PHERAstar (BMG Labtech, Germany) microplate reader using an optical module with excitation and emission filters of 485 nm (slit 10 nm) and 520 nm (slit 10 nm), respectively. Dual emission detection mode allows simultaneous recording of intensities that are parallel (l) and perpendicular (1) to the plane of excitation light. […] The background fluorescence (receptor and buffer components in the absence of fluorescent ligand) was subtracted independently from all intensity channels. FA signals at time t after initiation of binding reaction was calculated as parameters r(t) from the equation: […]

[2] = tested on: peritoneal cells (CCR2+ macrophages) of 4T1 tumor-bearing mice; assay: Flow cytometry of FAM-peptide binding to peritoneal cells from 4T1 tumor mice; type: cell-based, mouse; conditions: anti-CD206 10 μg/mL
Experimental: A, Change in fluorescence anisotropy of FAM-UNO (dotted line) and FAM-UNO in DTT (solid line) while incubating with mouse recombinant CD206. B, Change in fluorescence anisotropy of FAM-CSPGAK with mouse recombinant CD206 (solid line) or with CD163 (dotted line) and of FAM-CPMTDNE (control) with CD206 (dashed line). C, FAM-UNO binds selectively to CCR2^+ macrophages collected from the peritoneal cavity of 4T1 tumor-bearing mice, as 94.3% of FAM^+ cells are CCR2^+ cells. The analysis was done gating for the FAM^+ population (left panel). In these 4T1 tumor bearing mice, 58% of peritoneal cells are macrophages, i.e. CCR2^+ cells (right panel). D, FAM-UNO binding to peritoneal cells is inhibited by preincubating with 10 µg/mL of anti-CD206, whereas the preincubation with anti CD206 antibody had no effect on FAM-LyP-1 binding. In panels A and D are shown representative graphs from three independent experiments. In panels c and d are shown results from three independent experiments (n=3 mice) and bars of panel D represents mean+SEM.
Peritoneal cells were extracted from Balb/c mice 2 weeks after inoculation of 10^6 cells orthotopically). Mice were anesthetized and intraperitoneally injected with 5 mL of PBS+1% BSA, the abdomen was massaged to detach macrophages and the peritoneal fluid was collected. This procedure typically yielded 5-9×10^6 cells. Cells were concentrated to 1 mL in the same peritoneal fluid. For FAM-peptide incubation, the peptides were incubated for 30 minutes at 4° C. For antibody incubation the cells were incubated with antibody for 1 h at 4° C. A647 Rat anti-CCR2 (Biolegend, CA, USA. Catalog number 150603) was incubated for 1 h at 4° C. at a dilution of 1/200. FAM-peptides were incubated at a concentration of 0.5 μg/mL, and Rat anti-CD206 (Bio-Rad, CA, USA. Product code MCA2235GA) was incubated at a concentration of 10 μg/mL. Binding of FAM-peptides was monitored with 488 nm channel and CCR2 labeling was assessed in the 647 nm channel using A647 Anti-CCR2 (Biolegend, CA, USA). After incubation of FAM-Peptides or antibodies, the cells were washed 3 times at 4° C. with PBS-Tby centrifugation at 250 g for 6 minutes, followed by flow cytometry analysis (Accuri, BD Biosciences, CA, USA).

“CGEKRTRGC [phage clone previously identified together with LyP-1]” was tested. Which “representation among sequenced phage clones” value (peritoneal macrophages) did it give?
Its value is “second most abundant phage clone overrepresented in the cancer mice”.

Which “change in fluorescence anisotropy (interaction) with mouse recombinant CD206” value [1] does the source give for “FAM-CPMTDNE: FAM-labeled control peptide CPMTDNE (SEQ ID NO: 7) (not fully specified; FAM label) [reference compound]” here?
Its value is “did not cause significant changes in anisotropy values”.

“FAM-LyP-1: FAM-labeled LyP-1 (CGNKRTRGC; SEQ ID NO: 4), peptide that targets cell surface p32 (not fully specified (N-terminus); cysteine pairing not given here) [reference compound]” was tested. Which “reduction of binding to peritoneal cells by pre-incubation with anti-CD206 antibody” value [2] did it give?
Its value is “no effect”.

Source: patent US11571484B2, “Compositions that target tumor-associated macrophages and methods of use therefor” (Sanford Burnham Prebys Medical Discovery Institute, priority 2017, dated 2023)
